Experimental data reported in PMC6534582 (Nature Communications, 2019).
No end group written: not given here.

What was measured:
[1] = test system: Jmjd3 mRNA in Mof^f/f;Cre-ER brown preadipocytes; test: qRT-PCR of Jmjd3 mRNA (control gene); type: cell-based, mouse
Protocol: (§1) Mof^f/f mice were crossed with Cre-ER (Jackson no. 008463) to generate Mof^f/f;Cre-ER mice[10]. Primary brown preadipocytes were isolated from interscapular brown adipose tissue of newborn (P0) Mof^f/f;Cre-ER pups and immortalized by SV40T[38]. All mouse experiments were performed in accordance with the NIH Guide for the Care and Use of Laboratory Animals and approved by the Animal Care and Use Committee of NIDDK, NIH. For rescue experiment by ectopic expression of rat MOF, immortalized Mof^f/f;Cre-ER preadipocytes stably expressing WT or K274R MOF were established using lentivirus-mediated gene transfer. Briefly, 293FT lentiviral packaging cells were transfected with pLenti-CMV plasmids expressing MYC-tagged WT or K274R rat MOF. Preadipocytes were infected with those lentivirus-containing media, followed by puromycin selection for two passages. Those expressing MYC-tagged rat MOF were confirmed by western blot.
(§2) Western blot of histone modifications using acid extracts or of nuclear proteins using nuclear extracts were done as described[45],[46]. Total RNA was extracted using TRIzol (Invitrogen) and reverse transcribed using the ProtoScript II First-Strand cDNA Synthesis Kit (NEB), following the manufacturers’ instructions. qRT-PCR was done using the following SYBR green primers: Mof (forward, 5’–[…]–3’, and reverse, 5’–[…]–3’). qPCR was done using Luna® Universal qPCR Master Mix according to the manufacturers’ instructions (NEB). To detect truncated Mof transcripts after 4-OHT treatment (2 µM), RT-PCR was performed as described.

[2] = test system: Mof^f/f;Cre-ER brown preadipocytes; test: Growth rate of Mof KO cells; type: cell-based, mouse; settings: for growth rate of Mof KO cells: 4OHT
Protocol: as §1

[3] = test system: Mof mRNA in Mof^f/f;Cre-ER brown preadipocytes; test: qRT-PCR of Mof mRNA; type: cell-based, mouse
Protocol: as §1, §2

[4] = test system: MLL4-PHD6 (aa 1503–1562), wild-type; test: 1H,15N HSQC NMR titration of WT MLL4-PHD6; type: binding, human; settings: for chemical shift perturbations (CSPs): 1H,15N HSQC titration, 0.15 mM 15N-labeled MLL4-PHD6, PBS pH 6.5, 298 K
Protocol: (§3) The PHD6 domain of human MLL4 (aa 1503–1562) was cloned into a pCool vector. […] The human MLL3 PHD7 domain (aa 1083–1143) was cloned into a pGEX-6p vector. All constructs were expressed in Rosetta2 (DE3) pLysS cells. Protein production was induced with 0.5 mM IPTG overnight at 16̊ °C in Luria broth (LB) or minimal media (M9) supplemented with ^15NH4Cl and 0.06 mM ZnCl2 or ^15NH4Cl, ^13C-glucose, and 0.06 mM ZnCl2. The GST-tagged PHD proteins were purified on glutathione Sepharose 4B beads (GE Healthcare) in 50 mM Tris-HCl (pH 7.5) buffer, supplemented with 250 mM NaCl and 2 mM dithiothreitol (DTT). The GST tag was cleaved with Thrombin or TEV protease overnight at 4 °̊C. Unlabeled proteins were further purified by size exclusion chromatography and concentrated in Millipore concentrators. All mutants were generated by site-directed mutagenesis using the Stratagene QuikChange mutagenesis protocol, grown, and purified as WT proteins.
NMR samples for structure determination were prepared in 20 mM Tris-HCl (pH 7.0) buffer, supplemented with 100 mM NaCl, 5 mM DTT, and 8% D2O. […] 3D ^15N-/^13C-filtered ^13C- and ^15N-edited NOESY-HSQC spectra (mixing time of 150 ms) were collected to obtain intermolecular distance restraints.
(§4) For NMR titration experiments, ^1H,^15N HSQC spectra of 0.15 mM uniformly ^15N-labeled WT or mutated MLL4-PHD6 were recorded while peptides (synthesized by SynPeptide) were added stepwise. All experiments were carried out in phosphate-buffered saline buffer (pH 6.5).

[5] = test system: MLL4-PHD6; test: 1H,15N HSQC of linked H4-G7-MLL4-PHD6 construct; type: binding, human
Protocol: as §3, §4

[6] = target: T1, PHD6 finger of human MLL4 (aa 1503-1562) (human, UniProt O14686 1503-1562); test: NMR titration; 1H,15N HSQC spectra of 0.15 mM uniformly 15N-labelled MLL4-PHD6 while peptide was added stepwise up to a protein:peptide molar ratio of 1:5; phosphate-buffered saline pH 6.5; 298 K; settings: both partners purified
T1 construct: PHD6 finger of human MLL4 (KMT2D), aa 1503-1562, cloned into a pCool vector; Uniformly 15N-labelled for the titrations at 0.15 mM; also called MLL4-PHD6; MLL4-PHD6 1503-1562; source: Rosetta2 (DE3) pLysS cells, purified (glutathione Sepharose 4B; GST tag cleaved)
T1 sequence (O14686 1503-1562): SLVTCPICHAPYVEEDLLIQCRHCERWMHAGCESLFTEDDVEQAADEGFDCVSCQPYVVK

[7] = target: T1, PHD6 finger of human MLL4 (aa 1503-1562); test: NMR titration; 1H,15N HSQC spectra of 2.5 mM 13C/15N-labelled MLL4-PHD6 upon titration with H4K16ac (11-21) peptide at protein:ligand 1:0, 1:2, 1:3; 20 mM Tris-HCl pH 7.0, 100 mM NaCl, 5 mM DTT, 8% D2O; 298 K; settings: both partners purified
[8] = target: T2, PHD6 finger of MLL4 (MLL4-PHD6, aa 1503–1562), wild type (human, UniProt O14686 1503-1562); test: NMR structure; solution structure; 2.5 mM 13C/15N-labeled MLL4-PHD6 and 7.5 mM H4K16ac (11–21) peptide; 20 mM Tris-HCl pH 7.0, 100 mM NaCl, 5 mM DTT, 8% D2O; 298 K; settings: both partners purified
T2 construct: human MLL4 (KMT2D), PHD6 finger, aa 1503-1562; cloned into a pCool vector; 15N- or 13C/15N-labelled for NMR; also called MLL4-PHD6_(1503–1562); PHD6 domain of human MLL4; source: E. coli Rosetta2 (DE3) pLysS, purified (glutathione Sepharose, GST cleaved, SEC for unlabeled protein)
T2 sequence (O14686 1503-1562): as above

[9] = target: T2, PHD6 finger of MLL4 (MLL4-PHD6, aa …); test: NMR titration; 1H,15N HSQC of 0.15 mM uniformly 15N-labeled PHD finger (WT or mutated), peptides added stepwise; phosphate-buffered saline pH 6.5; 298 K; settings: both partners purified
[10] = target: T3, MLL4-PHD6 part of the linked H4-G7-MLL4-PHD6 construct (human, UniProt O14686 1503-1562); test: NMR, 1H,15N HSQC spectra of a linked construct compared with free and peptide-bound PHD6; H4 (11–23) joined to MLL4-PHD6 on one chain through a hepta-glycine linker; wild type and H4 mutants; settings: both partners purified
T3 construct: human MLL4 (KMT2D), PHD6 finger; aa 1503-1562 by the methods, 1503-1560 by the results; in the assay joined at its N-terminus through GGGGGGG to H4 residues 11-23 (m15 or its mutants) on one chain; also called H4_(11–23)-G7-PHD6 (PHD6 part); source: E. coli Rosetta2 (DE3) pLysS, purified
T3 sequence (O14686 1503-1562): as above

[11] = 4OHT-treated, technical replicate 1
[12] = 4OHT-treated, technical replicate 2
[13] = after two rounds of 4OHT treatment

Molecule: CC/C(=C(\c1ccc(O)cc1)c1ccc(OCCN(C)C)cc1)c1ccccc1 [4OHT, 4-hydroxytamoxifen]
- relative Jmjd3 mRNA level ([1]; 4OHT-treated Mof^f/f;Cre-ER preadipocytes, average of two technical replicates, Mock average 1.00005, STDEV in own column): 0.8326
- relative Jmjd3 mRNA level [1, 11]: 0.841
- relative Jmjd3 mRNA level [1, 12]: 0.8241
- mRNA of control gene Jmjd3 [1, 13]: unaffected
- growth rate of Mof KO cells ([2]; D1, average of two replicates (D0 = 1; Mock 3.715)): 2.81
- growth rate of Mof KO cells ([2]; D1, replicate 1 (Mock 3.89)): 2.98
- growth rate of Mof KO cells ([2]; D1, replicate 2 (Mock 3.54)): 2.64
- growth rate of Mof KO cells ([2]; D2, average of two replicates (D0 = 1; Mock 6.365)): 4.725
- growth rate of Mof KO cells ([2]; D2, replicate 1 (Mock 5.82)): 4.59
- growth rate of Mof KO cells ([2]; D2, replicate 2 (Mock 6.91)): 4.86
- growth rate of Mof KO cells ([2]; D3, average of two replicates (D0 = 1; Mock 10.695)): 7.02
- growth rate of Mof KO cells ([2]; D3, replicate 1 (Mock 9.81)): 6.59
- growth rate of Mof KO cells ([2]; D3, replicate 2 (Mock 11.58)): 7.45
- growth rate of Mof KO cells ([2]; D4, average of two replicates (D0 = 1; Mock 17.965)): 12
- growth rate of Mof KO cells ([2]; D4, replicate 1 (Mock 16.98)): 12.54
- growth rate of Mof KO cells ([2]; D4, replicate 2 (Mock 18.95)): 11.46
- growth rate of Mof KO cells ([2]; D5, average of two replicates (D0 = 1; Mock 25.18)): 15.215
- growth rate of Mof KO cells ([2]; D5, replicate 1 (Mock 26.41)): 14.49
- growth rate of Mof KO cells ([2]; D5, replicate 2 (Mock 23.95)): 15.94
- growth, 4OHT average relative to Mock ([2]; D4): 66.7965
- growth, 4OHT average relative to Mock ([2]; D5): 60.4249
- relative Mof mRNA level ([3]; 4OHT-treated Mof^f/f;Cre-ER preadipocytes, average of two technical replicates, single experiment, Mock average 1.00268, STDEV in own column): 0.1967
- relative Mof mRNA level [3, 11]: 0.2148
- relative Mof mRNA level [3, 12]: 0.1786
- mRNA level of Mof [3, 13]: significantly decreased

Molecule: CC(=O)NCCCC[C@H](N)C(=O)O [Kac]
- chemical shift perturbations (CSPs) [4]: failed to induce CSPs

Molecule: H4K16ac (11–21): H4K16ac peptide (residues 11–21) used for NMR structure; 15N/13C-labeled form synthesized by Bio-Synthesis
- saturation of MLL4-PHD6 by 3-fold excess of peptide ([4]; 7.5 mM H4K16ac (11–21) with 2.5 mM 13C/15N-labeled MLL4-PHD6, 20 mM Tris-HCl pH 7.0, 100 mM NaCl, 5 mM DTT, 8% D2O, 298 K, 1H,15N HSQC and 1H,13C HSQC): almost saturated

Molecule: H4_1–9: H4 peptide (residues 1–9 of H4) (SGRGKGGKG)
- chemical shift perturbations (CSPs) [4]: no chemical shift perturbations

Molecule: H4_8–25: peptide encompassing residues 8–25 of H4 (KGLGKGGAKRHRKVLRDN)
- chemical shift perturbations (CSPs) [4]: CSPs similar in directions to CSPs induced by the longer H4_1–23 peptide

Molecule: H4_12–23: peptide encompassing residues 12–23 of H4 (KGGAKRHRKVLR)
- chemical shift perturbations (CSPs) [4]: CSPs similar in directions to CSPs induced by the longer H4_1–23 peptide

Molecule: linked H4-MLL4-PHD6 construct: aa 11–23 of H4, hepta-glycine (GGGGGGG) linker, aa 1503–1562 of MLL4-PHD6
- spectral changes on mutation ([5]; H4K12 mutated to alanine in linked construct): only small spectral changes
- spectral changes on mutation ([5]; H4K23 mutated to alanine in linked construct): only small spectral changes
- binding of the H4 region in linked construct ([5]; H4 aa 11–23, hepta-glycine linker, MLL4-PHD6, no mutation): tightly bound to the protein
- complex formation on mutation ([5]; K16 and R17 of H4 mutated to alanine in linked construct): disrupted formation of the complex

B1: histone H4 (8-25) peptide (peptide, UniProt P62805 9-26, looked up)
peptide: KGLGKGGAKRHRKVLRDN
notes: histone H4, residues 8-25, unmodified; source: synthetic peptide (SynPeptide)
- binding result [6]: binds

B2: histone H4K16ac (11-21) peptide (peptide, UniProt P62805 12-22, looked up)
peptide: GKGGAK(Ac)RHRKV
notes: histone H4, residues 11-21, acetylated at K16; source: synthetic peptide
- binding result [7]: binds

B3: histone H4K16ac peptide, residues 11–21 (peptide, UniProt P62805 12-22, looked up)
peptide: GKGGAK(Ac)RHRKV
notes: histone H4, residues 11-21, acetylated at K16; a 15N/13C-labelled copy (Bio-Synthesis) was used to validate assignments; in the structure calculation only G13GAKacRH18 was used, with N-terminal acetyl and C-terminal N-Me amide caps; also called H4K16ac (11–21) peptide; source: synthetic peptide
- binding result [8]: binds

B4: histone H4 peptide, residues 12–23 (peptide, UniProt P62805 13-24, looked up)
peptide: KGGAKRHRKVLR
notes: histone H4, residues 12-23; also called H4_(12–23); source: synthetic peptide (SynPeptide)
- binding result [9]: binds

B5: H4 (residues 11–23) part of the linked H4-G7-MLL4-PHD6 construct, wild type (domain or fragment, UniProt P62805 12-24, looked up)
chain: GKGGAKRHRKVLR
notes: histone H4, residues 11-23; in the assay this stretch stood on ONE chain with m16: H4 11-23, hepta-glycine linker GGGGGGG, MLL4-PHD6; cloned into pDEST-15; also called H4_(11–23)-G7-PHD6 (H4 part); linked H4-MLL4-PHD6 construct; source: E. coli Rosetta2 (DE3) pLysS, purified
- binding result [10]: binds

B6: H4 (residues 11–23) K12A part of the linked H4-G7-MLL4-PHD6 construct (domain or fragment, UniProt P62805 12-24, looked up)
chain: GAGGAKRHRKVLR
notes: histone H4, residues 11-23, K12A; on one chain with m16 through a GGGGGGG linker; also called H4K12 to alanine in the linked construct; source: E. coli Rosetta2 (DE3) pLysS, purified as WT protein
- binding result [10]: binds

B7: histone H4 peptide, residues 8–25 (peptide, UniProt P62805 9-26, looked up)
peptide: KGLGKGGAKRHRKVLRDN
notes: histone H4, residues 8-25; source: synthetic peptide (SynPeptide)
- binding result [9]: binds
